Laboratory results: ChEMBL document CHEMBL5244229, “Thiazole-containing compounds as therapeutic targets for cancer therapy” (Eur J Med Chem, 2020)
≈ marks a conversion by molar mass, not a printed value.

What was measured:
HeLa [1] = test: Antiproliferative activity against human HeLa cells assessed as reduction in cell growth after 72 hrs; assay type: functional, cell-based
MCF7 [2] = test: Anticancer activity against human MCF7 cells; assay type: functional, cell-based
MCF7 [3] = test: Cytotoxicity against human MCF7 cells; assay type: functional, cell-based
[4] = system: Panel NCI-60 (60 carcinoma cell lines); test: Antitumor activity against human Panel NCI-60 (60 carcinoma cell lines) cells; assay type: functional
HepG2 [5] = test: Anticancer activity against human HepG2 cells; assay type: functional, cell-based
Colon cell line = test: Cytotoxicity against human Colon cell line; assay type: functional, cell-based
SMMC-7721 = test: Cytotoxicity against human SMMC-7721 cells; assay type: functional, cell-based
K562 [6] = test: Anticancer activity against human K562 cells; assay type: functional, cell-based
HepG2 [7] = test: Cytotoxicity against human HepG2 cells assessed as reduction in cell viability measured after 48 hrs by MTS assay; assay type: functional, cell-based; conditions: HepG2, 48 h
HCT-116 [8] = test: Anticancer activity against human HCT-116 cells; assay type: functional, cell-based
HeLa [9] = test: Cytotoxicity against human HeLa cells assessed as reduction in cell viability measured after 48 hrs by MTS assay; assay type: functional, cell-based
K562 [10] = test: Cytotoxicity against human K562 cells assessed as reduction in cell viability measured after 48 hrs by MTS assay; assay type: functional, cell-based; conditions: K562, 48 h
A549 = test: Antiproliferative activity against human A549 cells; assay type: functional, cell-based
HEK293 = test: Antiproliferative activity against human HEK293 cells; assay type: functional
HCT-116 [11] = test: Antiproliferative activity against human HCT-116 cells assessed as reduction in cell viability; assay type: functional, cell-based
HeLa [12] = test: Cytotoxicity against human HeLa cells; assay type: functional, cell-based
[13] = target: Epidermal growth factor receptor (Homo sapiens, UniProt P00533); test: Inhibition of EGFR (unknown origin)
Sequence of Epidermal growth factor receptor (P00533 whole entry): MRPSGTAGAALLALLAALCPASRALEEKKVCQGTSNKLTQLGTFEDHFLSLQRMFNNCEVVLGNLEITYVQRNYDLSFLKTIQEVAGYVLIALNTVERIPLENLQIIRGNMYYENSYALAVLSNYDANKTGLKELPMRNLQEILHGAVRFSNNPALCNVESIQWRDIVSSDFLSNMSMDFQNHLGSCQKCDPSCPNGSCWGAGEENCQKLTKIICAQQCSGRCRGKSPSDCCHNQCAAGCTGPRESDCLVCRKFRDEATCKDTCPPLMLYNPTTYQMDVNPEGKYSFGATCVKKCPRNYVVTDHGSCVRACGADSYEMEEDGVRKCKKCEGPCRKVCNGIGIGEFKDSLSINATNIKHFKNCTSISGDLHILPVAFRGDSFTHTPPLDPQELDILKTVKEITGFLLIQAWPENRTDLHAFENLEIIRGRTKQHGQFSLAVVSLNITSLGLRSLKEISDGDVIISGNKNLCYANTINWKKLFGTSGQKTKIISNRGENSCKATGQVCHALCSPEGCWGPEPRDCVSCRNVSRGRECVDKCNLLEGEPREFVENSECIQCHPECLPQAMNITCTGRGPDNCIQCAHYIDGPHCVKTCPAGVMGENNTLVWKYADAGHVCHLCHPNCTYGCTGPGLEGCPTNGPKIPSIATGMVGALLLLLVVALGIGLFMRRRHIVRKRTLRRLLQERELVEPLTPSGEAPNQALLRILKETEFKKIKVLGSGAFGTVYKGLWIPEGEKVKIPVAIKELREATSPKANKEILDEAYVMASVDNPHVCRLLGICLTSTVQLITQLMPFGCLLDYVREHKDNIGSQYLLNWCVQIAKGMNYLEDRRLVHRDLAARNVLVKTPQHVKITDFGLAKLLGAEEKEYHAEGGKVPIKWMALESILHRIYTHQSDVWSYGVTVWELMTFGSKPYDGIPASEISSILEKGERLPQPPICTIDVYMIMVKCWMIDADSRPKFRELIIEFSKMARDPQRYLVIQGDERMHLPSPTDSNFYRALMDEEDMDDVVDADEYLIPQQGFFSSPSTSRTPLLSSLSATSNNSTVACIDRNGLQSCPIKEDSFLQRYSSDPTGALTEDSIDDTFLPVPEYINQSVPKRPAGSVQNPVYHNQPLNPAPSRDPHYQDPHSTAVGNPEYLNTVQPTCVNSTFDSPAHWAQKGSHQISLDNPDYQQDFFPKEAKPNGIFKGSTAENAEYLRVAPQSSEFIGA

MV4-11 = test: Anticancer activity against human MV4-11 cells; assay type: functional, cell-based
HepG2 [14] = test: Cytotoxicity against human HepG2 cells; assay type: functional, cell-based
MCF7 [15] = test: Antitumor activity against human MCF7 cells; assay type: functional, cell-based
HepG2 [16] = test: Antitumor activity against human HepG2 cells; assay type: functional, cell-based
SK-HEP1 = test: Cytotoxicity against human SK-HEP1 cells; assay type: functional, cell-based
Hep 3B2 = test: Cytotoxicity against human Hep3B cells; assay type: functional, cell-based
SNU-638 = test: Cytotoxicity against human SNU-638 cells; assay type: functional, cell-based
MKN-74 = test: Cytotoxicity against human MKN-74 cells; assay type: functional, cell-based
[17] = Cytotoxicity against human SNU-216 cells; assay type: functional, cell-based
AGS = test: Cytotoxicity against human AGS cells; assay type: functional, cell-based

In the case of `COc1ccc(/C=N/Nc2nc(-c3ccccc3)cs2)cc1`, the IC50 (HeLa [1]) is reported as 11.1 µg/mL (≈ 35.9 µM).

`C/C(=N/N=c1/[nH]c(C)c(/N=N/c2ccccc2)s1)[C@H]1CC[C@H]2[C@@H]3CCC4=CC(=O)CC[C@]4(C)[C@H]3CC[C@]12C` gave an IC50 (MCF7 [2]) of 8870 nM.

`CC/C(=C(\c1ccccc1)c1ccc(OCCN(C)C)cc1)c1ccccc1` [TAMOXIFEN] showed an IC50 (MCF7 [2]) of 3530 nM.

For `CC(=O)Nc1ccc(NC(=O)/C(C#N)=C2\SC=C(c3ccccc3)N2c2ccccc2)cc1`, the IC50 (MCF7 [3]) was 9.3 µg/mL (≈ 20.6 µM).

`Clc1nccc2c(-c3csc(-c4c[nH]c5ccc(Br)cc45)n3)c[nH]c12` showed a GI50 [4] of 930 nM.

`Cc1ccc(-c2nc(C(=O)Nc3ccc([N+](=O)[O-])cc3)cs2)cc1` gave an IC50 (HepG2 [5]) of 10800 nM and an IC50 (Colon cell line; Homo sapiens, Colon cell line) of 10800 nM.

In the case of `Cc1ccc(-c2nc(C(=O)Nc3cccc(Cl)c3)cs2)cc1`, the IC50 (HepG2 [5]) is reported as 11600 nM.

`Cc1nc(N2N=C(c3cccs3)CC2c2ccc(C3CC(c4cccs4)=NN3c3nc(C)c(/N=N/c4ccc([N+](=O)[O-])cc4)s3)cc2)sc1/N=N/c1ccc([N+](=O)[O-])cc1` (stereo not given) showed an IC50 (SMMC-7721) of 3000 nM, an IC50 (K562 [6]) of 20 nM and an IC50 (HepG2 [7]) of 1370 nM. For the same compound, the IC50 (HepG2 [5]) was 150 nM and the IC50 (HCT-116 [8]) was 1370 nM.

With `Clc1cccc(Nc2c3ccccc3nc3sc(NCCN4CCCCC4)nc23)c1` the IC50 (HeLa [9]) was 5690 nM and the IC50 (K562 [10]) was 5690 nM.

`CCCCCCCC(=O)SCC/C=C/[C@@H]1CC(=O)NCc2nc(cs2)C2=N[C@@](C)(CS2)C(=O)N[C@@H](C(C)C)C(=O)O1` [LARGAZOLE] showed a GI50 (A549) of 1460 nM, a GI50 (HEK293) of over 100000 nM and an IC50 (HCT-116 [11]) of 390 nM.

`O=C1NC(=O)/C(=C/c2ccccc2Cl)S1` showed an IC (Colon cell line) of 10 µg/mL.

For `O=[N+]([O-])c1ccc(-c2nn(-c3nc(-c4ccc(Br)cc4)cs3)cc2/C=N/c2nc[nH]n2)cc1`, the GI50 (HeLa [12]) was 1.2 µg/mL (≈ 2.3 µM) and the GI50 (MCF7 [2]) was over 80 µg/mL.

Work on `COc1ccc(/C=C(/C#N)c2nc(-c3cc4ccccc4oc3=O)cs2)cc1OC` yielded an IC50 (HepG2 [7]) of 2890 nM.

For `COc1cc(C(=NC#N)c2csc(-c3ccccc3)n2)cc(OC)c1OC`, the IC50 [13] was 20 nM.

`O=S(=O)(Nc1ccc(-c2csc(N/N=C/c3ccc(N(CCCl)CCCl)cc3)n2)cc1)c1ccc(F)cc1` showed an IC50 (MV4-11) of 2170 nM and an IC50 (HCT-116 [8]) of 3.02 µg/mL.

Compound `CC(C)=NNc1nc(-c2ccc(Cl)cc2)cs1` has an IC50 [13] of 2000 nM.

`Cc1c(C(=O)Nc2ccccc2)s/c(=N\NC(=O)c2cnc(-c3ccccc3)s2)n1-c1ccccc1` showed an IC50 (HepG2 [5]) of 1.98 µg/mL.

`Cc1nc(C(Cl)(Cl)S(=O)(=O)c2ccc(Br)cc2)c([N+](=O)[O-])s1` showed a CC50 (HepG2 [14]) of under 2500 nM.

Compound `O=C1N/C(=N/c2ccc(-c3nc4ccccc4s3)cc2)S/C1=C/c1ccc([N+](=O)[O-])cc1` has an IC50 (MCF7 [15]) of 48 nM and an IC50 (HepG2 [16]) of 36 nM.

`CC(=O)Nc1ccc(NC(=O)/C(C#N)=C2\SC=C(C)N2c2ccccc2)cc1` gave an IC50 (MCF7 [3]) of 6.9 µg/mL (≈ 17.7 µM).

In the case of `COc1cc(C(=O)c2csc(-c3ccc4[nH]ccc4c3)n2)cc(OC)c1OC`, the IC50 [13] is reported as 8 nM.

`C=C(NC(=O)C(=C)NC(=O)c1ccc2c(n1)-c1coc(n1)C(=O)NC(=O)CNC(=O)c1coc(n1)C(=C)NC(=O)[C@H](C(C)(C)O)NC(=O)C(=O)NC(=O)c1nc(oc1C)/C(=C\C)NC[C@H](C(C)C)NC(=O)c1csc-2n1)C(N)=O` showed an IC50 (HepG2 [14]) of 1300 nM, an IC50 (SK-HEP1) of 990 nM and an IC50 (Hep 3B2) of 1040 nM. It also gave an IC50 (SNU-638) of 750 nM, an IC50 (MKN-74) of 2430 nM and an IC50 [17] of 880 nM. It also gave an IC50 (AGS) of 990 nM.

Compound `C=C(NC(=O)C(=C)NC(=O)c1csc(C2=N[C@@H]3c4csc(n4)[C@H]4NC(=O)c5csc(n5)[C@H]([C@](C)(O)[C@@H](C)O)NC(=O)[C@H]5CSC(=N5)/C(=C/C)NC(=O)[C@H]([C@@H](C)O)NC(=O)c5csc(n5)[C@]3(CC2)NC(=O)[C@H](C)NC(=O)C(=C)NC(=O)[C@H](C)NC(=O)[C@H]([C@@H](C)CC)N[C@@H]2C=Cc3c([C@H](C)O)cc(nc3[C@H]2O)C(=O)O[C@@H]4C)n1)C(N)=O` [THIOSTREPTON] has an IC50 (HepG2 [14]) of 710 nM, an IC50 (SK-HEP1) of 740 nM and an IC50 (Hep 3B2) of 820 nM. It also gave an IC50 (SNU-638) of 300 nM, an IC50 (MKN-74) of 4200 nM and an IC50 [17] of 410 nM. For the same compound, the IC50 (AGS) was 400 nM.

Compound `FC(F)(F)c1ccc(/C=N/Nc2nc(-c3ccc(Cl)cc3Cl)cs2)cc1` has an IC50 [13] of 5480 nM.

With `O=C(NC1=NC2C(=O)NN=C(c3ccc(Br)cc3)C2S1)Nc1ccc(Cl)cc1` (stereo not given) the IC50 [13] was 80 nM.

Work on `Cc1nc(C(Cl)(Cl)S(=O)(=O)c2ccc(Cl)cc2)c([N+](=O)[O-])s1` yielded a CC50 (HepG2 [14]) of under 2500 nM.

In the case of `Cn1c(-c2csc(-c3c[nH]c4ncccc34)n2)cc2cc(Br)cnc21`, the GI50 [4] is reported as 810 nM.
